Results: patent US20250230193A1, “CYCLIC COMPOUND HAVING SELECTIVE KRAS INHIBITORY EFFECT ON HRAS AND NRAS” (CHUGAI SEIYAKU KABUSHIKI KAISHA, priority 2022, published 2025)
Where a SMILES comes first, the peptide text is derived from it. Bridges are numbered along the chain shown (N, C = ends). [ ]: non-standard residue; d: D form. The star is where a group is joined. hPhe(3-Cl-4-CF3) = N[C@@H](CCc1ccc(C(F)(F)F)c(Cl)c1)C(=O)O; NPrPhe(4-CF3) = CCCN[C@@H](Cc1ccc(C(F)(F)F)cc1)C(=O)O; NMeGly(cPent) = CN[C@H](C(=O)O)C1CCCC1; NMeL = CN[C@@H](CC(C)C)C(=O)O; Morpholide = C1CN(*)CCO1; Ac5c = NC1(C(=O)O)CCCC1; Aze = O=C(O)[C@@H]1CCN1; Sar = CNCC(=O)O

Legend:
[1] = biological target: GDP-bound NRAS wild-type protein (Homo sapiens, UniProt P01111); experiment: Binding to NRAS by surface plasmon resonance (SPR), Single Cycle Kinetics; details: for NRAS/KRAS (ratio of KD value with respect to GDP-bound NRAS wild-type protein to KD value with respect to KRAS): class symbols
Sequence of GDP-bound NRAS wild-type protein (P01111 whole entry): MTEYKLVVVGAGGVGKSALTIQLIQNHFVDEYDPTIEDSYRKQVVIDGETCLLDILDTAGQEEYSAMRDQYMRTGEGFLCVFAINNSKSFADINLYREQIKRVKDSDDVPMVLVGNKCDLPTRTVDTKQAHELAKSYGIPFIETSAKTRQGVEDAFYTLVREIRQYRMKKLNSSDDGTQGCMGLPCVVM

[2] = biological target: GDP-bound HRAS wild-type protein (Homo sapiens, UniProt P01112); experiment: Binding to HRAS by surface plasmon resonance (SPR), Single Cycle Kinetics; details: for HRAS/KRAS (ratio of KD value with respect to GDP-bound HRAS wild-type protein to KD value with respect to KRAS): class symbols
Sequence of GDP-bound HRAS wild-type protein (P01112 whole entry): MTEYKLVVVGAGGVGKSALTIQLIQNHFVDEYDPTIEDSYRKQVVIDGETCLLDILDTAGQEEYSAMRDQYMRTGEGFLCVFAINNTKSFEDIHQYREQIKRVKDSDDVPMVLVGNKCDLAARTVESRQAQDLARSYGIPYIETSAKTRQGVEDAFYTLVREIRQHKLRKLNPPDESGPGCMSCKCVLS

[3] = SPR, GDP-bound NRAS wild-type vs GDP-bound KRAS wild-type
[4] = SPR, GDP-bound HRAS wild-type vs GDP-bound KRAS wild-type
[5] = KD ratio, GDP-bound NRAS wild-type vs GDP-bound KRAS wild-type, SPR
[6] = KD ratio, GDP-bound HRAS wild-type vs GDP-bound KRAS wild-type, SPR

With `CCOC[C@H]1C(=O)N[C@@H]([C@@H](C)CC)C(=O)N(C2CC2)CC(=O)N(C)[C@H]2C/C=C\CCN(C2=O)[C@@H](CC2CCC(F)(F)CC2)C(=O)N(C)CC(=O)N[C@@H](CCc2ccc(C(F)(F)F)c(OC)c2)C(=O)N2C[C@H](OCC)C[C@H]2C(=O)N(C)C2(CCC2)C(=O)N(C)[C@@H](C(CC)CC)C(=O)N(C)[C@H](C(=O)N(C)C)CC(=O)N1C` [PP2351] the “NRAS/KRAS (ratio of KD value with respect to NRAS to KD value with respect to KRAS)” value [1, 3] was “A (a compound having 10 or more and less than 20 is denoted as A)” and the “HRAS/KRAS (ratio of KD value with respect to HRAS to KD value with respect to KRAS)” value [2, 4] was “A (a compound having 10 or more and less than 20 is denoted as A)”.

In the case of `CCO[C@@H]1C[C@H]2C(=O)NC3(CCCC3)C(=O)N(C)[C@@H](C3CCCC3)C(=O)N(C)[C@H](C(=O)N3CCOCC3)CC(=O)N(C)[C@@H](COC)C(=O)N[C@@H]([C@@H](C)CC)C(=O)NCC(=O)N(C)[C@H]3CCCCCN(C3=O)[C@@H](Cc3ccc(C(F)(F)F)cc3)C(=O)N(C)CC(=O)N[C@@H](CCc3cc(F)c(C(F)(F)F)c(F)c3)C(=O)N2C1` [PP0862], the “NRAS/KRAS (ratio of KD value with respect to NRAS to KD value with respect to KRAS)” value [1, 5] is reported as “B (a compound having 3 or more and less than 10 is denoted as B)” and the “HRAS/KRAS (ratio of KD value with respect to HRAS to KD value with respect to KRAS)” value [2, 6] is reported as “B (a compound having 3 or more and less than 10 is denoted as B)”.

In the case of `CCO[C@@H]1C[C@H]2C(=O)NC3(CC(C)(C)C3)C(=O)N(C)[C@@H](C3CCCC3)C(=O)N(C)[C@H](C(=O)N(C)C)CC(=O)N(C)[C@@H](C)C(=O)N[C@@H]([C@@H](C)CC)C(=O)N(C)CC(=O)N(C)[C@H]3C/C=C\CCN(C3=O)[C@@H](Cc3ccc(C(F)(F)F)cc3)C(=O)N(C)CC(=O)N[C@@H](CCc3cc(F)c(C(F)(F)F)c(F)c3)C(=O)N2C1` [PP1641], the “NRAS/KRAS (ratio of KD value for NRAS to KD value for KRAS)” value [1, 5] is reported as “A (a compound having 10 or more and less than 20 is denoted as A)” and the “HRAS/KRAS (ratio of KD value for HRAS to KD value for KRAS)” value [2, 6] is reported as “A (a compound having 10 or more and less than 20 is denoted as A)”.

In the case of `CCC[C@H]1C(=O)N[C@@H]([C@@H](C)CC)C(=O)N(C2CC2)CC(=O)N(C)[C@H]2C/C=C\CCN(C2=O)[C@@H](Cc2ccc(C)cc2)C(=O)N(C)CC(=O)N[C@@H](CCc2ccc(C(F)(F)F)c(OC)c2)C(=O)N2C[C@@H](C)C[C@H]2C(=O)N(C)C2(CCC2)C(=O)N(C)[C@@H](C2CCCC2)C(=O)N(C)[C@H](C(=O)N(C)C)CC(=O)N1C` [PP2366], the “NRAS/KRAS (ratio of KD value with respect to NRAS to KD value with respect to KRAS)” value [1, 3] is reported as “A (a compound having 10 or more and less than 20 is denoted as A)” and the “HRAS/KRAS (ratio of KD value with respect to HRAS to KD value with respect to KRAS)” value [2, 4] is reported as “A (a compound having 10 or more and less than 20 is denoted as A)”.

In the case of `CCCN1C(=O)[C@@H]2CCN2C(=O)CN(C)C(=O)[C@H]([C@@H](C)CC)NC(=O)[C@H](CC(C)C)N(C)C(=O)C[C@@H](C(=O)N2CCOCC2)NC(=O)[C@H](C2CCCC2)N(C)C(=O)C2(CCCC2)NC(=O)[C@@H]2CCCN2C(=O)[C@H](CCc2ccc(C(F)(F)F)c(Cl)c2)NC(=O)CN(C)C(=O)[C@@H]1Cc1ccc(C(F)(F)F)cc1` [PP0349] ([NMeL]I[Sar][Aze][NPrPhe(4-CF3)][Sar][hPhe(3-Cl-4-CF3)]P[Ac5c][NMeGly(cPent)]D-Morpholide; lactam N-11), the “NRAS/KRAS (ratio of KD for GDP-bound NRAS wild-type to KD for KRAS)” value ([1]; KD ratio NRAS/KRAS, SPR) is reported as “C (A compound having a KD ratio of 0.1 or more and less than 3 is denoted as C)” and the “HRAS/KRAS (ratio of KD for GDP-bound HRAS wild-type to KD for KRAS)” value ([2]; KD ratio HRAS/KRAS, SPR) is reported as “B (a compound having 3 or more and less than 10 is denoted as B)”.

With `CCC[C@H]1C(=O)N[C@@H]([C@@H](C)CC)C(=O)N(C)CC(=O)N(C)[C@H]2C/C=C\CCN(C2=O)[C@@H](Cc2ccc(C)cc2)C(=O)N(C)CC(=O)N[C@@H](CCc2ccc3sc(C)c(C)c3c2)C(=O)N2C[C@H](OCC)C[C@H]2C(=O)NC2(CC(C)(C)C2)C(=O)N(C)[C@@H](C2CCCC2)C(=O)N(C)[C@H](C(=O)N(C)C)CC(=O)N1C` [PP2891] the “NRAS/KRAS (ratio of KD value with respect to GDP-bound NRAS wild-type protein to KD value with respect to KRAS)” value ([1]; KD ratio NRAS/KRAS) was “A (a compound having 10 or more and less than 20 is denoted as A)” and the “HRAS/KRAS (ratio of KD value with respect to GDP-bound HRAS wild-type protein to KD value with respect to KRAS)” value ([2]; KD ratio HRAS/KRAS) was “B (a compound having 3 or more and less than 10 is denoted as B)”.

In the case of `CCC[C@H]1C(=O)N[C@@H](CC(C)C)C(=O)N(C2CC2)CC(=O)N(C)[C@H]2C/C=C\CCN(C2=O)[C@@H](Cc2ccc(C)cc2)C(=O)N(C)CC(=O)N[C@@H](CCc2ccc(C(F)(F)F)c(OC)c2)C(=O)N2C[C@H](OCC)C[C@H]2C(=O)NC2(CCC2)C(=O)N(C)[C@@H](C2CCCC2)C(=O)N(C)[C@H](C(=O)N(C)C)CC(=O)N1C` [PP2534], the “NRAS/KRAS (ratio of KD value with respect to GDP-bound NRAS wild-type protein to KD value with respect to KRAS)” value ([1]; KD ratio NRAS/KRAS) is reported as “A (a compound having 10 or more and less than 20 is denoted as A)” and the “HRAS/KRAS (ratio of KD value with respect to GDP-bound HRAS wild-type protein to KD value with respect to KRAS)” value ([2]; KD ratio HRAS/KRAS) is reported as “B (a compound having 3 or more and less than 10 is denoted as B)”.
